In US20060115426A1, “Methods of detecting breast cancer, brain cancer, and pancreatic cancer” (priority 2004, published 2006):
Entries after “also recorded” stand apart in the source; their conditions may differ.

Legend:
[1] = tested on: C6 gliomas; assay: Biodistribution (tissue distribution) of 125I-NM404 in glioma-bearing rats; assay type: in vivo, rat; conditions: for Tumor/brain ratio: based on % injected dose/g; for tissue distribution, Thyroid: indicator of in vivo deiodination
Procedure: (§1) Glioma tumor model: All animals were housed and handled in accordance with the University of Wisconsin Research Animal Resources Center guidelines. Rat C6 glioma cells were propagated in DMEM medium (Life Technologies, Gaithersburg, Md.) supplemented with 10% heat-inactivated FBS (BioWhittaker, Walkersville, MD), 100 U/ml penicillin-G, 100 μg/ml streptomycin, and 0.01 M hepes (Life Technologies, Gaithersburg, Md.). Intracranial tumor implantation was performed as described in Badie B, et al. J. Neuroimmunol. 133:39-45, 2002. Briefly, 1×10^6 C6 cells were resuspended in 5 μl of 1.2% methylcellulose and injected into the frontal lobes of anesthetized female Wistar rats (Harlan, Indianapolis, Ind.). Sham-operated animals received intracranial injections of an equal volume of methylcellulose without tumor cells.
Biodistribution studies: Rats bearing C6 gliomas (n=4, 10 day old tumors), and sham-operated rats (n=3) were injected with ^125I-NM404 (15 μCi/200 g rat) and biodistribution studies performed as described in Rampy M A, et al. J. Med. Chem. 38:3156-3162, 1995. Accordingly, animals were euthanized by exsanguination at 24, 48, and 96 hours following injection. A total of 17 tissues including blood, plasma, adrenal glands, bladder wall, bone marrow, brain, eye lens, fat, heart, kidney, liver, lung, muscle, spleen, skin, thyroid, and tumor were excised, rinsed, and dissected free of extraneous tissue. Tissues were minced and duplicate samples weighed and placed in plastic tubes for isotope counting in a gamma counter (Perkin Elmer/Wallac Wizard-1470). Injection site and residual carcass radioactivity were determined in a well counter (Capintec CRC-15R). Time normalized tissue distribution tables were generated by a custom computer program which produces decay-corrected tissue radioactivity concentration data on a percent injected dose/g, […], and percent injected dose/organ±SEM basis.

[2] = tested on: spontaneous mammary carcinomas; assay: Bioscan imaging of 125I-NM404 in Apc Min/+ endogenous mammary adenocarcinoma model; assay type: in vivo, mouse
Description: Apc^Min/+ Mouse Model: This model is comprised of mice carrying the Min allele of Apc (Apc^Min/+ mice) and the type of lesions that appear in these mice are molecularly and histologically similar to breast cancer in humans. This model offers specific advantages over xenograft models in that female Apc^Min/+ mice are predisposed to developing mammary hyperplasias and carcinomas and intestinal adenomas. On the C57BL6/J genetic background, about 5% of untreated females will develop a mammary tumor by 100 days of age (Moser A R, et al. Proc. Natl. Acad. Sci. USA 90:8977-81, 1993). The incidence and multiplicity of the mammary lesions can be increased by a single dose of ethylnitrosourea (ENU), a direct acting alkylating agent. Treatment with ENU results in 90% of B6 Apc^Min/+ females developing an average of 3 mammary squamous cell carcinomas (SCC), but few hyperplasic lesions within 60 days after treatment.
Genetic background can affect the incidence, latency, and type of mammary lesions that develop. For example, FVBxB6 Apc^Min/+ female mice develop an average of 0.2 mammary tumors per mouse, but 4 hyperplasias per mouse within 120 days of treatment. BALB/xB6 Apc^Min/+ develop an average of 1.8 mammary tumors and 0.6 hyperplasias per mouse (Moser A R, et al. Cancer Research 61:3480-3485, 2001). FVBxB6 and BALBxB6 Apc^Min/+ mice develop both mammary SCC and adenocarcinomas (AC).
Imaging Studies: NM404 (100 μg) was radioiodinated with ^125I via isotope exchange in a melt of privalic acid. Following HPLC purification it was dissolved in an aqueous 2% tween-20 solution prior to tail vein injection (15 μCi/20 g mouse) into 6 female Apc^Min/+ mice. Mice were anesthetized and scanned for up to 30 days post injection on a modified Bioscan AR2000 radio-TLC scanner (1 mm increments at 2 mm acquisition/lane and 1 mm high-resolution collimator) and also in an ImTek microCT scanner (390 steps) for anatomic comparison. […] At sacrifice, mammary glands or excised tumors were imaged ex vivo, lesions were excised, weighed, and radioactivity quantitated. Lesion samples were submitted for histological classification. If necessary a long-acting CT blood pool contrast agent (BP20), as described in Weichert J P, et al. Radiology 216:865-871, 2000 and suitable for long microCT acquisitions times, was injected intravenously prior to CT scanning in order to assist in blood vessel visualization (FIG. 3).

[3] = tested on: C6 gliomas; assay: Bioscan imaging of excised brains of C6 glioma-bearing and sham-operated rats; assay type: in vivo, rat
Procedure: as §1
Imaging studies: Ten days after implantation rats were screened for the presence of intracranial tumors with MRI as described in Badie B, et al. Clin. Cancer Res. 9:872-877, 2003. […]
NM404 (100 μg) was radioiodinated with ^125I via isotope exchange in a melt of pivalic acid (Weichert J P, et al. Int J Appl Rad Isotopes 37:907-913,1986). […] Co-registered Bioscan images and digital photographs were fused (Corel Photo-Paint) in order to accurately determine the location of radioactivity. […]

[4] = tested on: pancreatic adenocarcinomas; assay: Bioscan imaging of 125I-NM404 in c-myc spontaneous pancreatic adenocarcinoma model; assay type: in vivo, mouse; conditions: c-myc transgenic mice, adenocarcinomas 5-12 mm in diameter
Description: Mouse Pancreatic Adenocarcinoma Models: Two murine strains that are transgenic for either c-myc or k-ras, well-known oncogenes, have been developed at the University of Wisconsin (Sandgren E P, et al. Proc. Natl. Acad. Sci. USA 88:93-97, 1991 and Grippo P J, et al. Cancer Research 63:2016-2019, 2003). Expression of c-myc is targeted to pancreatic acinar cells because it is linked to an elastase promoter, which is only expressed in the pancreas. These ela-1-myc transgenic mice develop acinar and ductal neoplasia, which results in death between 2 and 7 months of age. By one month of age, the pancreas appears thickened and firm. Thus mice between the ages of 1-3 months serve as excellent models for the study of pancreatic cancer. Most human pancreatic neoplasms have a ductal morphology, and Dr. Sandgren's transgene targeting strategies are aimed at developing tumors that are specific for pancreatic ductal epithelium.
Imaging Studies: In order to determine if NM404 localizes in mouse pancreatic tumors, six c-myc transgenic mice were scanned on a Bioscan AR-2000 radioTLC scanner (modified by inventors for mouse imaging) from 2-21 days after tail vein injection of ^[…] (15 μCi/20 g body weight). […] At sacrifice, tissues were excised, weighed, and radioactivity quantitated in a gamma counter.

[5] = tested on: viable tumor cells; assay: Autoradiography experiments in other tumor models; assay type: in vivo; conditions: versus normal or necrotic tissues
[6] = tested on: CNS-1 brain tumor xenografts; assay: MicroPET evaluation of 124I-NM404 in rat CNS-1 brain tumor model; assay type: in vivo; conditions: CNS-1 rats
Procedure: NM404 was radiolabeled with ^124I in excellent radiochemical yield (>60% isolated yield, >99% purity) via isotope exchange reaction of stable NM404 with sodium-iodide (Eastern Isotopes, Sterling Va.). Following preparative HPLC purification ^124I-NM404 was solubilized in 2% Tween-20 and filtered (0.22 micron). NM404 (130-200 μCi in 0.1 ml) was injected (i.v., tail vein) into 6 rats with CNS-1 brain tumor xenografts. MicroPET images (Concorde Microsystems-P4, 30 min acquisition) were acquired immediately after and at 6 h, 24 h, and 96 h post injection. Contrast-enhanced MRI images were obtained immediately following the final PET scan and PET/MRI images were manually fused using Amira (V3.1, TGS, Inc). Rats were euthanized and brain tissue subjected to histopathologic analysis.

[7] = Apc Min/+ mice, Bioscan imaging

## C[N+](C)(C)CCOP(=O)([O-])OCCCCCCCCCCCCCCCCCCc1ccc([125I])cc1 [^125I-NM404]
[1]; 24 h, N = 1
  tissue distribution, Blood: 1.83 % injected dose/g tissue
  tissue distribution, Brain: 0.07 % injected dose/g tissue
  tissue distribution, Glioma: 0.74 % injected dose/g tissue
  tissue distribution, Kidney: 0.91 % injected dose/g tissue
  tissue distribution, Liver: 0.77 % injected dose/g tissue
  tissue distribution, Spleen: 0.80 % injected dose/g tissue
[1]; 24 h
  Tumor/brain ratio: 10.6
[1]; 48 h, N = 1
  tissue distribution, Blood: 1.16 % injected dose/g tissue
  tissue distribution, Brain: 0.05 % injected dose/g tissue
  tissue distribution, Glioma: 0.60 % injected dose/g tissue
  tissue distribution, Kidney: 0.44 % injected dose/g tissue
  tissue distribution, Liver: 0.30 % injected dose/g tissue
  tissue distribution, Spleen: 0.33 % injected dose/g tissue
  tissue distribution, Thyroid: 2.34 % injected dose/g tissue
[1]; 48 h
  Tumor/brain ratio: 12.0
[1]; 96 h, N = 2, ± SEM
  tissue distribution, Blood: 0.82 ± 0.01 % injected dose/g tissue
  tissue distribution, Brain: 0.09 ± 0.02 % injected dose/g tissue
  tissue distribution, Glioma: 0.70 ± 0.04 % injected dose/g tissue
  tissue distribution, Kidney: 0.45 ± 0.05 % injected dose/g tissue
  tissue distribution, Liver: 0.39 ± 0.01 % injected dose/g tissue
  tissue distribution, Spleen: 0.33 ± 0.03 % injected dose/g tissue
  tissue distribution, Thyroid: 9.06 ± 3.84 % injected dose/g tissue
[1]; 96 h
  Tumor/brain ratio: 7.8

## C[N+](C)(C)CCOP(=O)([O-])OCCCCCCCCCCCCCCCCCCc1ccc(I)cc1 [NM404, 18-(p-iodophenyl)-octadecylphosphocholine]
[2]; Apc Min/+ mice after i.v. 125I-NM404
  HPLC analysis of radioactive urine and feces: presence of metabolites and no parent NM404
[2]; [7]
  localization in focal alveolar (mammary) hyperplasias: no corresponding focal activity; also recorded: did not localize
  localization in intestinal adenomatous polyps: no uptake; also recorded: did not localize
[2]; Apc Min/+ mice, i.v. 125I-NM404 15 μCi/20 g, carcinomas 2-15 mm in diameter
  uptake in spontaneous mammary carcinomas: > 20 % dose/g
[2]; Apc Min/+ mice, mammary carcinomas, 21 days = predetermined study endpoint
  tumor retention: > 21 days
[3]; C6 glioma-bearing rats, 24-96 h after i.v. 125I-NM404 15 μCi/200 g
  tracer uptake in C6 gliomas on Bioscan images: intense localization; also recorded: concentrated intensely
[3]; sham operated control rats
  radioactivity in normal brain tissue: minimal
[1]; 24 h
  Tumor/brain ratio: 10.6
[1]; 48 h, N = 1
  tissue distribution, Thyroid: 2.3 % injected dose/g tissue
[1]; 48 h
  Tumor/brain ratio: 12.0
[1]; 96 h, N = 2, ± SEM
  tissue distribution, Thyroid: 9.0 % injected dose/g tissue
[1]; 96 h
  Tumor/brain ratio: 7.8
[4]
  retention in pancreatic adenocarcinomas: > 21 days
[4]; i.v. 15 μCi/20 g
  uptake in pancreatic adenocarcinomas: striking uptake
[5]
  cells/tissues capable of accumulating NM404 (autoradiography): only viable tumor cells

## C[N+](C)(C)CCOP(=O)([O-])OCCCCCCCCCCCCCCCCCCc1ccc([124I])cc1 [^124 I-NM404]
[6]; 6 hours following injection
  tumor uptake (microPET): respectable tumor uptake
[6]; any time point
  concomitant normal brain tissue activity (microPET): Little to no
[6]; at either 24 or 96 hours
  tumor conspicuity (microPET): significant
[6]; within 30 minutes of i.v. injection
  tumor uptake (microPET): no tumor uptake
